# Measurements reported in ChEMBL document CHEMBL1201862, “PubChem BioAssay data set” (2004).
# The source made the active and inactive calls.
# How the values were obtained:
# [1] = biological target: T1, Short transient receptor potential channel 4 (Mus musculus, UniProt Q9QUQ5); assay: mouse TRPC4 channel inhibitors, dose response, cell-based, HEK293 TRPC4/mu-opioid, Fluo-4 calcium (AID 434942); type: functional;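 further: potency of inhibitors blocking the TRPC4 calcium response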
# T1 sequence (Q9QUQ5 whole entry): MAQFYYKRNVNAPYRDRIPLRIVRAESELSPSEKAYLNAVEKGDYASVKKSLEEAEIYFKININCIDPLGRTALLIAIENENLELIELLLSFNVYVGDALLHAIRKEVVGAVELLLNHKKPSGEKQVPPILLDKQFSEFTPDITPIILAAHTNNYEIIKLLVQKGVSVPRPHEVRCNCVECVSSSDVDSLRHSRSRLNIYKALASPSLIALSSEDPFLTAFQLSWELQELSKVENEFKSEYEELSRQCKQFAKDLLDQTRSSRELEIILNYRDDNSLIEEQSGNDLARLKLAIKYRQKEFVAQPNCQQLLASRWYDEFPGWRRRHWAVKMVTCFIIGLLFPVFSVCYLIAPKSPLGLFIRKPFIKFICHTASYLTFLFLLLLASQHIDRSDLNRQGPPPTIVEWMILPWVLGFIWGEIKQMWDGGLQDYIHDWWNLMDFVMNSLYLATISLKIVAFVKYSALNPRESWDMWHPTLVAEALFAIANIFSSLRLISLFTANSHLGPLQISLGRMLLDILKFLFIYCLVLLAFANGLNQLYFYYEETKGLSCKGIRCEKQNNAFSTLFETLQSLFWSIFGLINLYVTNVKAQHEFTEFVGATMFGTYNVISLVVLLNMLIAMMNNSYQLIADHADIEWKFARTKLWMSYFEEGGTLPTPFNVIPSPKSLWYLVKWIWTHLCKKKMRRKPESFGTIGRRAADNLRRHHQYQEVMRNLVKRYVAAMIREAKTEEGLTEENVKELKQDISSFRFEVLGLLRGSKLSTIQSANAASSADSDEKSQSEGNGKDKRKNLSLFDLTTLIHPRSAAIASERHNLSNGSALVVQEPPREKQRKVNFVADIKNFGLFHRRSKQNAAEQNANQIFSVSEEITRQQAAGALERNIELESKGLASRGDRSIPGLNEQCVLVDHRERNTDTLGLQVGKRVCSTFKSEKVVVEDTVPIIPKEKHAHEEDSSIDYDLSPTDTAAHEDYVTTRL
# [2] = biological target: T2, Voltage-gated N-type calcium channel alpha-1B subunit/Amyloid beta A4 precursor protein-binding family A member 1 (Homo sapiens, UniProt Q00975+Q02410); type: protein assay
# [3] = biological target: T2, Voltage-gated N-type calcium channel alpha-1B subunit/Amyloid beta A4 precursor protein-binding family A member 1; type: protein assay; remark: listed apart in the source
# Vero [4] = assay: Vero cell cytotoxicity, cytotoxicity control for flavivirus capping enzyme inhibitors (AID 588742); type: functional; conditions: Chlorocebus sabaeus
# [5] = biological target: Eukaryotic translation initiation factor 4E (Mus musculus, UniProt P63073); assay: eIF4E–eIF4G protein interaction inhibitors, dose response, biochemical, TR-FRET (AID 855); type: functional;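 further: potency for disrupting eIF4E binding to eIF4GI seen as loss of FRET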
# [6] = biological target: Heat shock protein HSP 90-alpha (Homo sapiens, UniProt P07900); type: functional, organism-based
# Vero [7] = assay: cells; type: functional, cell-based; conditions: Chlorocebus sabaeus
# Vero [8] = assay: cells; type: functional; conditions: Chlorocebus sabaeus
# [9] = Shn3 3'UTR reporter inhibitors, dose response, cell-based, Clone20 osteoblasts, firefly luciferase, cherry-picked (AID 624132); type: functional;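 further: firefly luciferase luminescence from reporter carrying the Shn3 3'UTR in osteoblasts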
# [10] = HepG2 cell cytotoxicity, dose response, cytotoxicity control for Shn3 inhibitor project, CellTiter-Glo, cherry-picked (AID 624134); type: functional, cell-based
# [11] = control 3'UTR Renilla luciferase suppression, dose response, counter-screen for Shn3 inhibitor project, cell-based, Clone20-Shn3RL, cherry-picked (AID 624133); type: functional
# Fatty acid synthase [12] = biological target: T3, Fatty acid synthase (Homo sapiens, UniProt P49327); assay: FAS thioesterase domain inhibitors, dose response, biochemical, endpoint fluorescence intensity, uHTS hits (AID 624327); type: functional;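 further: fluorescence from hydrolysis of an O-methyl fluorescein acyl ester substrate by the enzyme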
# Fatty acid synthase [13] = biological target: T3, Fatty acid synthase; assay: FAS thioesterase domain inhibitors, dose response, biochemical, kinetic fluorescence intensity (AID 624326); type: functional;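 further: rate of fluorescence rise from hydrolysis of a fluorogenic O-methyl fluorescein ester substrate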
# [14] = NIH-3T3 fibroblast cytotoxicity, dose response, cytotoxicity control, cell-based, fluorescence, Alamar Blue, secondary assay (AID 2327); type: functional;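 further: NIH-3T3 mouse fibroblasts cultured with fluconazole at 8 µg/mL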
# [15] = C. albicans growth with fluconazole, confirmation, fluorescence, retest (AID 2467); type: functional, cell-based
# [16] = biological target: T4, Serine/threonine-protein phosphatase (Candida dubliniensis (strain CD36 / CBS 7987 / NCPF 3949 / NRRLY-17841) (Yeast), UniProt B9W6M3); assay: calcineurin pathway inhibitors in yeast reporter, dose response, S. cerevisiae, CDRE-lacZ, luminescence, secondary (AID 2388); type: functional, cell-based;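 further: yeast reporter cells carrying a calcineurin-responsive lacZ construct stimulated with calcium chloride; luminescent beta-galactosidase reporter signal in whole cells rather than isolated phosphatase activity; potency for inhibition where a drop in reporter signal means calcineurin blockade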
# T4 sequence (B9W6M3 whole entry): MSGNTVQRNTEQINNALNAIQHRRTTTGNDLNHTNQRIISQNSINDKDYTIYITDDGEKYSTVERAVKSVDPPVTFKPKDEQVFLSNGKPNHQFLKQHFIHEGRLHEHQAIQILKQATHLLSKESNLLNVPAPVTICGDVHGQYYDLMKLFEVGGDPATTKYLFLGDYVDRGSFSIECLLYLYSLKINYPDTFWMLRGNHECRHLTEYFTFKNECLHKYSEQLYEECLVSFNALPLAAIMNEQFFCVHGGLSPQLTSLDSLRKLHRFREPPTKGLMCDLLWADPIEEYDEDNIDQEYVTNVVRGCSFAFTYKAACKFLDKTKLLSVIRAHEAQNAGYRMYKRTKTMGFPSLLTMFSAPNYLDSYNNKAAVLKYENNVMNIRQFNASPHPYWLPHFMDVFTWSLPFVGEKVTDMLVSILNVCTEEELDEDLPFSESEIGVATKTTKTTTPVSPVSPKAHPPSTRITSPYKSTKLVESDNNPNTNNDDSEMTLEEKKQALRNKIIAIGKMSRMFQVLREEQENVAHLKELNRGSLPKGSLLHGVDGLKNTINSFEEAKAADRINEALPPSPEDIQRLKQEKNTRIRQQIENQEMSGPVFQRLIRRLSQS
# [17] = biological target: ATP-dependent molecular chaperone HSP82 (Candida albicans (strain WO-1) (Yeast), UniProt C4YTQ8); assay: loss of DOC-induced GRE-beta-galactosidase reporter signal, dose response, Hsp90 inhibitor project, S. cerevisiae, luminescence (AID 2400); type: functional, cell-based;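 further: beta-galactosidase luminescence from glucocorticoid response element reporter as proxy for Hsp90 function; inhibitor potency where signal loss means Hsp90 inhibition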
# [18] = biological target: T5, Microphthalmia-associated transcription factor (Homo sapiens, UniProt O75030); assay: TRPM1 promoter luciferase signal decrease, dose response, MITF inhibitor project, cell-based, SK-MEL-5, cherry-picked, set 3 (AID 493073); type: functional
# T5 sequence (O75030 whole entry): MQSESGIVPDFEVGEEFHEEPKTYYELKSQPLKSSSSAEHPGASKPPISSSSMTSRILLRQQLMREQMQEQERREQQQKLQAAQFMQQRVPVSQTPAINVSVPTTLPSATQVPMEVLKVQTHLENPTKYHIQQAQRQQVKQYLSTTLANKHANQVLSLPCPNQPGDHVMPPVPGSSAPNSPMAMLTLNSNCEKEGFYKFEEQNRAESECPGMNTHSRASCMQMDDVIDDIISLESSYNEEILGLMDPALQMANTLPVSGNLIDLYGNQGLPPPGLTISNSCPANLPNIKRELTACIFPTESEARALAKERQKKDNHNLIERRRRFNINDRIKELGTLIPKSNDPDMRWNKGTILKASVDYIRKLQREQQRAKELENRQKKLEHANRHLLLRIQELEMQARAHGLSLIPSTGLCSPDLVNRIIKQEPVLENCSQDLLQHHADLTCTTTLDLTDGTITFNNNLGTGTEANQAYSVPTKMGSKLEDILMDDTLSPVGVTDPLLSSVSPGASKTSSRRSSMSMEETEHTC
# Tumor necrosis factor = Tumor necrosis factor (Homo sapiens, UniProt P01375); assay: TNFa-triggered NF-kB activation inhibitors, SAR follow-up, cell-based, revised (AID 2337); type: functional
# [19] = biological target: T6, Nucleotide-binding oligomerization domain-containing protein 1 (Homo sapiens, UniProt Q9Y239); assay: NOD1 signaling inhibitors, SAR follow-up, revised (AID 2333); type: functional
# T6 sequence (Q9Y239 whole entry): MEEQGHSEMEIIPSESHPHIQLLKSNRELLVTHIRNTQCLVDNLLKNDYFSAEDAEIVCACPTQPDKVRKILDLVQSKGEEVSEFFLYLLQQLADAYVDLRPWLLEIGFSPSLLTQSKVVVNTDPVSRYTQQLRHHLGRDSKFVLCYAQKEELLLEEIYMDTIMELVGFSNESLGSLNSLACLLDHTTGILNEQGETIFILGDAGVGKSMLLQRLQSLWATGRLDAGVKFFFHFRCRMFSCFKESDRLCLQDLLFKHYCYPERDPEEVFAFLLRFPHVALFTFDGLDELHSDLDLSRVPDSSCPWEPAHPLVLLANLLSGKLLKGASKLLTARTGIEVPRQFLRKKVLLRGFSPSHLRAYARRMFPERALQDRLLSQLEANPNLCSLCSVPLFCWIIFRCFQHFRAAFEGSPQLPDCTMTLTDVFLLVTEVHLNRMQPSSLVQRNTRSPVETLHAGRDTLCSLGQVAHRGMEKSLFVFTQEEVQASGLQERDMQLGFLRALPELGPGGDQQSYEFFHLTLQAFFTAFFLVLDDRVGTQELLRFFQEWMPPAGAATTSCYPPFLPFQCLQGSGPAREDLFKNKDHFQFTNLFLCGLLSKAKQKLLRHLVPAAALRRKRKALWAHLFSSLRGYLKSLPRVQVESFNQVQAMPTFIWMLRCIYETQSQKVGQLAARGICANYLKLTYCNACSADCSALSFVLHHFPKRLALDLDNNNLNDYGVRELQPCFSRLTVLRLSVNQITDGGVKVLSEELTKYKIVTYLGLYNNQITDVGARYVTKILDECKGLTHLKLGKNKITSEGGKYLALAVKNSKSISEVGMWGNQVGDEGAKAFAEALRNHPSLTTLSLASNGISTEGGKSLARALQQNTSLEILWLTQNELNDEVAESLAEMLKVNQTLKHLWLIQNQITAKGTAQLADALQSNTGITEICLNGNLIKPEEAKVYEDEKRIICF
# HEK293 = assay: cells; conditions: Homo sapiens;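 further: cells exposed to compound for 14 hours overnight before viability readout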
# Sequence of Eukaryotic translation initiation factor 4E (P63073 whole entry): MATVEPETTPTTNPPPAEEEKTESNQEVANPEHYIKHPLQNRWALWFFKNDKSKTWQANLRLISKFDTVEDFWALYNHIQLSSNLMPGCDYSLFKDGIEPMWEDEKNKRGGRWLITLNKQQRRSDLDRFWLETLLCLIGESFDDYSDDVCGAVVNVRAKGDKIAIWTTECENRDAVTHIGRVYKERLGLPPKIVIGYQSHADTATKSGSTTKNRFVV
# T2 sequence (Q00975 whole entry): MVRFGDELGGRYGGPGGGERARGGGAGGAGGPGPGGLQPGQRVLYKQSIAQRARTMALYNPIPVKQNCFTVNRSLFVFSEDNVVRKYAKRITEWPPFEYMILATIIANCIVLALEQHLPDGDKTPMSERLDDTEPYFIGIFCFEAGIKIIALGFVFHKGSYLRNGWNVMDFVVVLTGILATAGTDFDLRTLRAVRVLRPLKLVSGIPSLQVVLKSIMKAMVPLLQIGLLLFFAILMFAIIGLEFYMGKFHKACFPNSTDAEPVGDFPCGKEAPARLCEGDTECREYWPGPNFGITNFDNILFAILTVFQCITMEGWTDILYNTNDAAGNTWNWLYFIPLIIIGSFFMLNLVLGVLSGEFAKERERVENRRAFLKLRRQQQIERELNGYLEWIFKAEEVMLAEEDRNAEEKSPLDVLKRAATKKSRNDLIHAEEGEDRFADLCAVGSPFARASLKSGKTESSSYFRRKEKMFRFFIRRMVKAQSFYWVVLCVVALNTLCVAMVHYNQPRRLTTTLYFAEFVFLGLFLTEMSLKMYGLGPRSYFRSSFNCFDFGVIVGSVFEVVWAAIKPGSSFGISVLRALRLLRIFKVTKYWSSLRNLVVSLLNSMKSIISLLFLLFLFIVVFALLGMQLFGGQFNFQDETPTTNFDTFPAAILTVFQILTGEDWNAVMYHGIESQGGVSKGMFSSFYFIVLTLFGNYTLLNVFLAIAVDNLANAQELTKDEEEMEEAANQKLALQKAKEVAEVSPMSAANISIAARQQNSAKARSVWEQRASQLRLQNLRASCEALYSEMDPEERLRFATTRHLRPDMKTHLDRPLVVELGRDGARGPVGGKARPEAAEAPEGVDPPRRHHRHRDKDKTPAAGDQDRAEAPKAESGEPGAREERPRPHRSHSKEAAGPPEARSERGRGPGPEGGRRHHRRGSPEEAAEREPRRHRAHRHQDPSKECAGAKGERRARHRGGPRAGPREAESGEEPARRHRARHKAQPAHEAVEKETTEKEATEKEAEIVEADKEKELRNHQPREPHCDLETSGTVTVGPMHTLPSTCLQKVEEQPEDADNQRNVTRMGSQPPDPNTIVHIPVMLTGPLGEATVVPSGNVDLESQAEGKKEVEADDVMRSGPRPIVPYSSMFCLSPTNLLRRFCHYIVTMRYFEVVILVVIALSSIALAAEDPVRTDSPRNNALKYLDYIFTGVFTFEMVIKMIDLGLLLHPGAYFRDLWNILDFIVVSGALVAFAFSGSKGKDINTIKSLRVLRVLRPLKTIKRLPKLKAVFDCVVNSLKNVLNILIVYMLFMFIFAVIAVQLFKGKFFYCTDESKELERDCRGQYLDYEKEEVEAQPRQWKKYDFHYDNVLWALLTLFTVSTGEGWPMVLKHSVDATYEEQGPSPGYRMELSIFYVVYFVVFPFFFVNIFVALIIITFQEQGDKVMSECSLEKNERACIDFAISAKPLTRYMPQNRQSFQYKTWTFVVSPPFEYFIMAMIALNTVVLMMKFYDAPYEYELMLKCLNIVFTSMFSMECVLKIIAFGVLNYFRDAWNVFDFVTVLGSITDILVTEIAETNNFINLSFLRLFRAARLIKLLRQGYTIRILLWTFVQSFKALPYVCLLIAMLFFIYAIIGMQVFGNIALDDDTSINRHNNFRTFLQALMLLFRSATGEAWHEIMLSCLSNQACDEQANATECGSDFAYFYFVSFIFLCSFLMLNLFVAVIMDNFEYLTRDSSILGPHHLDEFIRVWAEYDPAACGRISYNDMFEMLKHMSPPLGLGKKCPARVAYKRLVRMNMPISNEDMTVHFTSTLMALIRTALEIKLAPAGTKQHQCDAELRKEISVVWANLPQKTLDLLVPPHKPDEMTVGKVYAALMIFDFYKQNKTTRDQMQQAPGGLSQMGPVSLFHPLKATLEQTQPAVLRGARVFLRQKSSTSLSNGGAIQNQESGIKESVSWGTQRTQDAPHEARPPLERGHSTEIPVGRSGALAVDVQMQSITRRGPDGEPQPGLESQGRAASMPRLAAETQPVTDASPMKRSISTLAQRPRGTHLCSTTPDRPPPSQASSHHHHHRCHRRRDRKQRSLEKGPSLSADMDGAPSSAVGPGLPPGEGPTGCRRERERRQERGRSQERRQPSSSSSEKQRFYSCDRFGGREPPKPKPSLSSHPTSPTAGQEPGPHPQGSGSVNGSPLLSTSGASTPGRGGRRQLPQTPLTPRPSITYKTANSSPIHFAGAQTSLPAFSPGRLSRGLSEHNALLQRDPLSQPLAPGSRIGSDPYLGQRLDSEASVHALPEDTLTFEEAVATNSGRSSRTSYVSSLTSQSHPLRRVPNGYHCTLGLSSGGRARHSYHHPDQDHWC
# T2 sequence (Q02410 whole entry): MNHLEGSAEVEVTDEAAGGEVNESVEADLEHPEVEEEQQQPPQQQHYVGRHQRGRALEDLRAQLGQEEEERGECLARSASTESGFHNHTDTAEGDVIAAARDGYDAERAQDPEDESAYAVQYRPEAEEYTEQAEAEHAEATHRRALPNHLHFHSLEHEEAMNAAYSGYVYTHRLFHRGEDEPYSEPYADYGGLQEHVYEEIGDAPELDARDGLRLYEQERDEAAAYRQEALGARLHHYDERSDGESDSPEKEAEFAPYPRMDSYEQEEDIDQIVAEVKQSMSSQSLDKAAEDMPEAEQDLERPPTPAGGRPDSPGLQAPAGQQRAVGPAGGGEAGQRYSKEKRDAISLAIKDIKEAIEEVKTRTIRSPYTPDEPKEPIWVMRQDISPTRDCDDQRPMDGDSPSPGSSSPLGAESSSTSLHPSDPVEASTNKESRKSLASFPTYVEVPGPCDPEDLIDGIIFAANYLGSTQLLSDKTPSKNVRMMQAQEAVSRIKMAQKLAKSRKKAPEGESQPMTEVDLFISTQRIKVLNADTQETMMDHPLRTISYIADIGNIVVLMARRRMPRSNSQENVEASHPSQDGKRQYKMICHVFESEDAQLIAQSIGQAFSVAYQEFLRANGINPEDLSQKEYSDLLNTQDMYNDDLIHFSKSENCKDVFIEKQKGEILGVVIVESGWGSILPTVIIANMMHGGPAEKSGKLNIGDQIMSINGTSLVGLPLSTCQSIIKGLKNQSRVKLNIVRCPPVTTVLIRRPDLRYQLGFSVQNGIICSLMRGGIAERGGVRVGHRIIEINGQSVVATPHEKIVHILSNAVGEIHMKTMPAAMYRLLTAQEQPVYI
# Sequence of ATP-dependent molecular chaperone HSP82 (C4YTQ8 whole entry): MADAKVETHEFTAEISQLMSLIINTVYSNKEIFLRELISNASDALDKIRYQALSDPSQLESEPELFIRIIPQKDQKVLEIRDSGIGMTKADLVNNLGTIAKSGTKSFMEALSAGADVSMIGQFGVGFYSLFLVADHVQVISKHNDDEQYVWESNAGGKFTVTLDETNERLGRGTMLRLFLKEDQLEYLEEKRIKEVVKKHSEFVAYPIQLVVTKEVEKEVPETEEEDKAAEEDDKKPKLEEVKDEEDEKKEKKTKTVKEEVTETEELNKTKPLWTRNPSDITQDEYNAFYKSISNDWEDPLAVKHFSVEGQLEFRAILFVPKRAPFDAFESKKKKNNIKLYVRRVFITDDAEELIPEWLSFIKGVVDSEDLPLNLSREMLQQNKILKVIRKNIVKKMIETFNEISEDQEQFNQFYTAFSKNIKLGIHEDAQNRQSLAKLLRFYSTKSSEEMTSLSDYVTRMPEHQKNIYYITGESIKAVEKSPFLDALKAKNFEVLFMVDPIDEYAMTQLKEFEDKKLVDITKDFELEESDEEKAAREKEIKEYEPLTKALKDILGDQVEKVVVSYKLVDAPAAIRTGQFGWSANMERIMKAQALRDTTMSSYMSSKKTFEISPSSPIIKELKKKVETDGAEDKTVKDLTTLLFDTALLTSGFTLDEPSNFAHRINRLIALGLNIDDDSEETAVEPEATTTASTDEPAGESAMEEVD
# Sequence of Tumor necrosis factor (P01375 whole entry, the tested form may be a part): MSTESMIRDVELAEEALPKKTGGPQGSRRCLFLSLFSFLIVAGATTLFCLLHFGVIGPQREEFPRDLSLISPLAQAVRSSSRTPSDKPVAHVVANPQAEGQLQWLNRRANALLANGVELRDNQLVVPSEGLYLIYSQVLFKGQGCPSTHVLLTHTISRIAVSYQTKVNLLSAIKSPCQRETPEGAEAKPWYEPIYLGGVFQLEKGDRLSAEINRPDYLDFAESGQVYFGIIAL
structure (smiles),measurement,setting,value
O=C(Nc1ccnn1C1CCN(CCCC2CCCC2)CC1)c1ccccc1Cl,EC50,[1],1.68 µM (active)
COc1ccc(C2CC2/C(=N/O)c2ccccc2)cc1 (stereo not given),EC50,[1],2.99 µM (active)
CC12CC3(C)CC(C)(C1)CC(NC(=O)N1CCCC1)(C2)C3,EC50,[1],7.5 µM (active)
COc1ccc(/C=C2\SC(=S)N(CC(=O)NNC(=O)c3ccncc3)C2=O)cc1,IC50,[2],> 56.8 µM (not active)
same,IC50,[3],> 50 µM (inactive)
Cc1cccc(NC(=S)NC2CCCCC2)n1,IC50,[2],9.58 µM (active)
same,IC50,[3],> 50 µM (inactive)
COc1ccc(CNc2nc(NCc3ccc(OC)cc3)c3[nH]cnc3n2)cc1,CC50,Vero [4],> 40 µM (active)
COc1ccc(CNC2=NC(=O)CC(C(=O)Nc3ccc(F)cc3)S2)cc1 (stereo not given),IC50,[5],> 64 µM (inactive)
C/C=C/C=C\C(=O)Nc1cccc(C2=NOC3(C2)C[C@H](C(N)=O)N(C(=O)/C=C/C)C3)c1 (stereo not given in full),IC50,[2],9.88 µM (active)
same,IC50,[3],6.79 µM (active)
COc1ccc(S(=O)(=O)N2CCC(C(=O)NCc3cccc(OC)c3)CC2)cc1,IC50,[5],> 64 µM (inactive)
O=C1C(F)=CC(COC(c2ccccc2)(c2ccccc2)c2ccccc2)OC1n1cc(F)c(=O)[nH]c1=O (stereo not given),AC50,[6],2.6 µM (active)
same,IC50,Vero [7],12.1 µM (active)
same,CC50,Vero [8],6.83 µM (active)
same,AC50,[9],0.428 µM (active)
same,AC50,[10],9.11 µM (active)
same,AC50,[11],2.42 µM (active)
same,IC50,Fatty acid synthase [12],7.69 µM (active)
same,IC50,Fatty acid synthase [13],8.13 µM (active)
COc1ccc(Sc2nc(-c3ccccc3)ncc2C(=O)O)cc1,EC50,[1],5.96 µM (active)
CSc1ccccc1NC(=O)c1ccccc1C,IC50,[5],50 µM (inactive)
O=C(Nc1ccncc1)c1cc2ccccc2cc1O,CC50,Vero [4],> 40 µM (active)
Cc1cc(=O)oc2cc(Oc3ccc([N+](=O)[O-])cc3[N+](=O)[O-])ccc12,EC50,[14],35.9 µM (inconclusive)
same,EC50,[15],1.3 µM (active)
same,EC50,[16],> 180 µM (inactive)
same,EC50,[17],> 160 µM (inactive)
COC/C=C/C1=CC2=CC(=O)C(C)(OC(=O)c3cnc4ccccc4n3)C(=O)C2=CN1c1ccc(CO)cc1 (stereo not given),IC50,[2],10.4 µM (active)
same,IC50,[3],11.2 µM (active)
Cc1oc(-c2ccc(Cl)cc2)nc1CN1CCC(C(=O)NCCCN2CCCC(C)C2)CC1 (stereo not given),AC50,[18],13.2 µM (active)
same,IC50,Vero [7],4.32 µM (active)
same,CC50,Vero [8],22.5 µM (active)
O=C(CSc1nc2scc(-c3ccccc3)c2c(=O)[nH]1)Nc1ccc(C(F)(F)F)cc1,IC50,Tumor necrosis factor,0.752 µM (active)
same,IC50,[19],1.65 µM (active)
same,IC50,HEK293,10.3 µM (active)
